# How the values were obtained:
# [1] = test system: relapsed or refractory mantle cell lymphoma; details: patients with relapsed or refractory mantle cell lymphoma, Phase II; cited from earlier work
# nasopharyngeal cancer = assay: Treatment of nasopharyngeal cancer patients with the compound of formula (III-A), IV twice-weekly; clinical response; assay type: in vivo, human
# Protocol: (1) Tissue Microarray (obtained from US Biomax, Inc.) of primary nasopharyngeal cancer (n=35) (2) Tissue Microarray of metastatic nasopharyngeal cancer (obtained from US Biomax, Inc.) (n=15) (3) Tissue Microarray of other histologies of head and neck cancers (obtained from US Biomax, Inc.) (n=68) (4) Archival primary tumor biopsy samples of patients with head and neck squamous cell cancers (n=14). All samples were obtained under the appropriate informed consent. The patients were administered the compound of formula (III-A) on a twice-weekly schedule (days 1, 4, 8 and 11 of a 21-day cycle) as an IV injection. Of the primary tumor samples in (4), there were three patients with nasopharyngeal cancer.
# [2] = test system: hematological and solid tumor xenograft models; details: range of hematological and solid tumor xenograft models; cited from earlier work
# [3] = on exposure to aqueous solution or plasma; cited from earlier work
SMILES,activity in patients [1],"clinical response, Patient 1 (nasopharyngeal cancer; Patient 1, metastatic nasopharyngeal cancer of a squamous cell type, IV injection days 1, 4, 8 and 11 of a 21-day cycle, NFκB p65 H-score 300)","Responder/Non-responder, Patient 1 (nasopharyngeal cancer; Patient 1, nasopharyngeal cancer, NFκB p65 IHC assay H-score 300)","disease progression, Patient 2 (time to progression) (nasopharyngeal cancer; Patient 2, nasopharyngeal cancer, IV injection days 1, 4, 8 and 11 of a 21-day cycle, NFκB p65 H-score 200) [cycles]","Responder/Non-responder, Patient 2 (nasopharyngeal cancer; Patient 2, nasopharyngeal cancer, NFκB p65 IHC assay H-score 200)","clinical response, Patient 3 (nasopharyngeal cancer; Patient 3, nasopharyngeal cancer, IV injection days 1, 4, 8 and 11 of a 21-day cycle, NFκB p65 H-score 160)","Responder/Non-responder, Patient 3 (nasopharyngeal cancer; Patient 3, nasopharyngeal cancer, NFκB p65 IHC assay H-score 160)",anti-tumor activity in xenograft models [2],hydrolysis to the active form MLN2238 [3]
"CC(C)C[C@H](NC(=O)[C@H](Cc1ccccc1)NC(=O)c1cnccn1)B(O)O [bortezomib, N-2-pyrazinecarbonyl-L-phenylalanine-L-leucineboronic acid]",activity,,,,,,,,
"CC(C)C[C@H](NC(=O)CNC(=O)c1cc(Cl)ccc1Cl)B1OC(=O)C(CC(=O)O)(CC(=O)O)O1 [compound of formula (III-A), 2,2′-{2-[(1R)-1-({[(2,5-dichlorobenzoyl)amino]acetyl}amino)-3-methylbutyl]-5-oxo-1,3,2-dioxaborolane-4,4-diyl}diacetic acid]",,durable partial response,Responder,≤ 4,Non-responder,progressive disease,Non-responder,anti-tumor activity,rapidly hydrolyzes

# From patent US20160008382A1, “METHODS OF TREATMENT OF CANCER” (Millennium Pharmaceuticals, Inc., priority 2012, published 2016)
